Assays:
[1] = test system: ADP-induced platelet aggregation; thrombus formation; settings: in words; cited from earlier work
[2] = test system: ADP-induced platelet aggregation; settings: Zamecnik '550 Table 3, read-out: ID50 (the source's name); cited from earlier work
[3] = test system: Leukocytes; assay: Distribution of ^125 I-labeled CHCl-AP4 A into blood cell fractions: leukocytes; assay type: binding, human
Description: (§1) There are, however, a variety of purinoceptors on other cell types. AP4 A analogues may bind not only to platelets but also to the erythrocytes and leukocytes when whole blood is treated with the agents. […] Platelets were separated by a gradual centrifugation, the packed red cells with buffy coats (leukocytes) were mixed, and fractionated by means of histopaque gradient separation (A. Boyum, Scand J. Clin. Lab. Invest. 21(suppl 97):77 (1968)). The cell fractions were washed twice and final suspensions were counted for cell number and the radioactivity. Percent distribution was calculated based on the CBC data of whole blood. Binding sites are expressed in the values per cells.

[4] = Distribution of ^125 I-labeled CHCl-AP4 A: plasma & washes; assay type: binding, human; settings: 23 μM, 22° C., 30 minutes; mean of two
Description: as §1

[5] = test system: ADP-induced platelet aggregation; assay: Inhibition kinetic study, ADP-induced platelet aggregation; assay type: cell-based, human
Description: Unless otherwise provided below, the experimental procedures were performed according to the procedures provided in U.S. Pat. No. 5,049.550 (Zamecnik '550), the entire contents of which are incorporated herein by reference. Some alternative procedures (e.g., release reaction, PF3 assays) and a number of additional studies also are provided (e.g., cytoplasmic calcium mobilization, fibrinogen binding site, agonists other than ADP, platelet cAMP and distribution of CHCl-AP4 A into blood components). Blood was collected in a 0.1 volume of 3.8% sodium citrate from healthy human volunteers who had abstained from antiplatelet agents for at least 10 days. Platelet rich plasma (PRP) was separated by a gradual centrifugation and adjusted to 3.3×10^8 platelets per ml plasma. PRP has been utilized in the Examples unless otherwise stated.
An initial screening was performed for inhibitory effects of several agents (including, e.g., thio-CHCl-AP4 A and CHCl-AP4 A as reference agent)) on platelet aggregation induced by ADP. Platelet aggregation was measured with platelet-rich plasma (PKP) by the turbidimetric method of Born (J. Physiol. 162:67, 1962) in an aggregometer (Chrono-log, Model 530 VS). Platelet aggregation induced by 5 μM ADP in the absence or presence of 5 μM agents was examined. […]

| SMILES | effect on thrombus formation on administration to a mammal [1] | IC50 [2] [nM] | Distribution (%) ([3]; 23 μM, 22° C., 30 minutes, mean of two) | Binding Sites ([3]; gross estimation per cell) | binding sites per surface area, relative value ([3]; relative, leukocytes) | Distribution (%) [4] [%] | nature of inhibition [5] | Ki ([5]; ADP-induced aggregation, read-out: inhibition constant (Ki)) [nM] |
| --- | --- | --- | --- | --- | --- | --- | --- | --- |
| Nc1ncnc2c1ncn2[C@@H]1O[C@H](COP(=O)(O)OP(=O)(O)C(Cl)P(=O)(O)OP(=O)(O)OC[C@H]2O[C@@H](n3cnc4c(N)ncnc43)[C@H](O)[C@@H]2O)[C@@H](O)[C@H]1O (some centres unmarked) [CHCl-AP4 A] | inhibit thrombus formation | 3000 | 1.94 | 7.39 × 10^7 per cells | 1000 | 95.5 |  |  |
| Nc1ncnc2c1ncn2[C@@H]1O[C@H](COP(O)(=S)OP(=O)(O)C(Cl)P(=O)(O)OP(O)(=S)OC[C@H]2O[C@@H](n3cnc4c(N)ncnc43)[C@H](O)[C@@H]2O)[C@@H](O)[C@H]1O (some centres unmarked) [Thio-CHCl-AP4 A, P^1, P^4 -dithio -P^2 -P^3 monochloromethylene 5', 5'" diadenosine P^1, P^4 -tetraphosphate] |  |  |  |  |  |  | competitive inhibition | 330 |

Source: patent US5681823A, “P^1, P^4 -dithio-P^2 -P^3 -monochloromethylene 5', 5'"-diadenosine P^1, P^4 -tetraphosphate as antithrombotic agent” (PRP Inc., priority 1996, dated 1997)
